Data taken from ChEMBL document CHEMBL3085634, “Identification of elaiophylin derivatives from the marine-derived actinomycete Streptomyces sp. 7-145 using PCR-based screening” (2013).
In brackets after ≈: the same amount, converted by molar mass.

Key:
Format in all cases: functional
Morganella morganii = assay: Antibacterial activity against beta-lactamase producing Morganella morganii ATCC 25830 assessed as growth inhibition after 18 hrs by agar dilution method; conditions: ATCC 25830, 18 h
Pseudomonas aeruginosa = assay: Antibacterial activity against beta-lactamase producing Pseudomonas aeruginosa ATCC 27853 assessed as growth inhibition after 18 hrs by agar dilution method; conditions: ATCC 27853, 18 h
Klebsiella pneumoniae [1] = assay: Antibacterial activity against New Delhi metallo-beta-lactamase 1 producing Klebsiella pneumoniae ATCC BAA-2146 assessed as growth inhibition after 18 hrs by agar dilution method; conditions: ATCC BAA-2146, 18 h
Klebsiella pneumoniae [2] = assay: Antibacterial activity against extended spectrum beta-lactamase producing Klebsiella pneumoniae ATCC 700603 assessed as growth inhibition after 18 hrs by agar dilution method; conditions: ATCC 700603, 18 h
Escherichia coli [3] = assay: Antibacterial activity against beta-lactamase producing Escherichia coli 09-20 assessed as growth inhibition after 18 hrs by agar dilution method; conditions: 09-20, 18 h
Escherichia coli [4] = assay: Antibacterial activity against extended spectrum beta-lactamase producing Escherichia coli 09-1 assessed as growth inhibition after 18 hrs by agar dilution method; conditions: 09-1, 18 h
Enterococcus faecium [5] = assay: Antibacterial activity against vancomycin-sensitive Enterococcus faecium 09-10 assessed as growth inhibition after 18 hrs by agar dilution method; conditions: 09-10, 18 h
Enterococcus faecium [6] = assay: Antibacterial activity against vancomycin-resistant Enterococcus faecium ATCC 700221 assessed as growth inhibition after 18 hrs by agar dilution method; conditions: ATCC 700221, 18 h
Enterococcus faecalis [7] = assay: Antibacterial activity against vancomycin-resistant Enterococcus faecalis ATCC 51299 assessed as growth inhibition after 18 hrs by agar dilution method; conditions: ATCC 51299, 18 h
Enterococcus faecalis [8] = assay: Antibacterial activity against vancomycin-sensitive Enterococcus faecalis 09-8 assessed as growth inhibition after 18 hrs by agar dilution method; conditions: 09-8, 18 h
Enterococcus faecalis [9] = assay: Antibacterial activity against vancomycin-sensitive Enterococcus faecalis ATCC 29212 assessed as growth inhibition after 18 hrs by agar dilution method; conditions: ATCC 29212, 18 h
[10] = tested on: Staphylococcus epidermidis; assay: Antibacterial activity against methicillin-resistant Staphylococcus epidermidis 09-3 assessed as growth inhibition after 18 hrs by agar dilution method; conditions: 09-3, 18 h
Staphylococcus aureus [11] = assay: Antibacterial activity against methicillin-resistant Staphylococcus aureus 09-13 assessed as growth inhibition after 18 hrs by agar dilution method; conditions: 09-13, 18 h
Staphylococcus aureus [12] = assay: Antibacterial activity against methicillin-resistant Staphylococcus aureus ATCC 33591 assessed as growth inhibition after 18 hrs by agar dilution method; conditions: ATCC 33591, 18 h
Staphylococcus aureus [13] = assay: Antibacterial activity against methicillin-sensitive Staphylococcus aureus 09-6 assessed as growth inhibition after 18 hrs by agar dilution method; conditions: 09-6, 18 h
Staphylococcus aureus [14] = assay: Antibacterial activity against methicillin-sensitive Staphylococcus aureus ATCC 29213 assessed as growth inhibition after 18 hrs by agar dilution method; conditions: ATCC 29213, 18 h
[15] = tested on: Staphylococcus epidermidis; assay: Antibacterial activity against methicillin-sensitive Staphylococcus epidermidis ATCC 12228 assessed as growth inhibition after 18 hrs by agar dilution method; conditions: ATCC 12228, 18 h
Micrococcus luteus = assay: Antibacterial activity against apramycin-resistant Micrococcus luteus ATCC 10240 assessed as growth inhibition after 18 hrs by agar dilution method; conditions: ATCC 10240, 18 h
Enterococcus faecalis [16] = assay: Antibacterial activity against vancomycin-resistant Enterococcus faecalis R6512 assessed as growth inhibition after 18 hrs by agar dilution method; conditions: R6512, 18 h
Enterococcus faecalis [17] = assay: Antibacterial activity against vancomycin-resistant Enterococcus faecalis W4138 assessed as growth inhibition after 18 hrs by agar dilution method; conditions: W4138, 18 h
[18] = tested on: Staphylococcus epidermidis; assay: Antibacterial activity against methicillin-sensitive Staphylococcus epidermidis 09-9 assessed as growth inhibition after 18 hrs by agar dilution method; conditions: 09-9, 18 h
Staphylococcus aureus [19] = assay: Antibacterial activity against thiostrepton-resistant Staphylococcus aureus ATCC 6538P assessed as growth inhibition after 18 hrs by agar dilution method
Staphylococcus aureus [20] = assay: Antibacterial activity against methicillin-resistant Staphylococcus aureus R6101 assessed as growth inhibition after 18 hrs by agar dilution method; conditions: R6101, 18 h

| Compound | MIC (Morganella morganii) [µg/mL] | MIC (Pseudomonas aeruginosa) [µg/mL] | MIC (Klebsiella pneumoniae [1]) [µg/mL] | MIC (Klebsiella pneumoniae [2]) [µg/mL] | MIC (Escherichia coli [3]) [µg/mL] | MIC (Escherichia coli [4]) [µg/mL] | MIC (Enterococcus faecium [5]) [µg/mL] | MIC (Enterococcus faecium [6]) [µg/mL] | MIC (Enterococcus faecalis [7]) [µg/mL] | MIC (Enterococcus faecalis [8]) [µg/mL] | MIC (Enterococcus faecalis [9]) [µg/mL] | MIC [10] [µg/mL] | MIC (Staphylococcus aureus [11]) [µg/mL] | MIC (Staphylococcus aureus [12]) [µg/mL] | MIC (Staphylococcus aureus [13]) [µg/mL] | MIC (Staphylococcus aureus [14]) [µg/mL] | MIC [15] [µg/mL] | MIC (Micrococcus luteus) [µg/mL] | MIC (Enterococcus faecalis [16]) [µg/mL] | MIC (Staphylococcus aureus [20]) [µg/mL] | further results |
| --- | --- | --- | --- | --- | --- | --- | --- | --- | --- | --- | --- | --- | --- | --- | --- | --- | --- | --- | --- | --- | --- |
| CC[C@H]1OC(=O)[C@H](C)[C@@H](O[C@H]2C[C@@](C)(OC)[C@@H](O)[C@H](C)O2)[C@H](C)[C@@H](O[C@@H]2O[C@H](C)C[C@H](N(C)C)[C@H]2O)[C@](C)(O)C[C@@H](C)C(=O)[C@H](C)[C@@H](O)[C@]1(C)O [ERYTHROMYCIN] | > 256 | > 256 | > 256 | > 256 | > 256 | > 256 | > 256 | 64 (≈ 87.2 µM) | 8 (≈ 10.9 µM) | 32 (≈ 43.6 µM) | 16 (≈ 21.8 µM) | > 256 | > 256 | 256 (≈ 349 µM) | 0.25 (≈ 0.341 µM) | 0.25 (≈ 0.341 µM) | 16 (≈ 21.8 µM) | – | – | – | – |
| CC[C@@H]1[C@@H](C)O[C@@](OC)([C@@H](C)[C@H](O)[C@H](C)[C@H]2OC(=O)/C=C/C=C/[C@H](C)[C@@H]([C@@H](C)[C@@H](O)[C@H](C)[C@@]3(O)C[C@@H](O[C@H]4C[C@H](O)[C@H](O)[C@H](C)O4)[C@H](CC)[C@@H](C)O3)OC(=O)/C=C/C=C/[C@@H]2C)C[C@H]1O[C@H]1C[C@H](O)[C@H](O)[C@H](C)O1 | > 256 | > 256 | > 256 | > 256 | > 256 | > 256 | 2 (≈ 1.92 µM) | 2 (≈ 1.92 µM) | 1 (≈ 0.962 µM) | 2 (≈ 1.92 µM) | 32 (≈ 30.8 µM) | 2 (≈ 1.92 µM) | 2 (≈ 1.92 µM) | 2 (≈ 1.92 µM) | 2 (≈ 1.92 µM) | 2 (≈ 1.92 µM) | 2 (≈ 1.92 µM) | 2 (≈ 1.92 µM) | 1 (≈ 0.962 µM) | 1 (≈ 0.962 µM) | MIC (Enterococcus faecalis [17]): 2 µg/mL (≈ 1.92 µM); MIC [18]: 2 µg/mL (≈ 1.92 µM); MIC (Staphylococcus aureus [19]): 2 µg/mL (≈ 1.92 µM) |
| CC[C@@H]1[C@@H](C)O[C@@](OC)([C@@H](C)[C@H](O)[C@H](C)[C@H]2OC(=O)/C=C/C=C/[C@H](C)[C@@H]([C@@H](C)[C@@H](O)[C@H](C)[C@@]3(OC)C[C@@H](O[C@H]4C[C@H](O)[C@H](O)[C@H](C)O4)[C@H](CC)[C@@H](C)O3)OC(=O)/C=C/C=C/[C@@H]2C)C[C@H]1O[C@H]1C[C@H](O)[C@H](O)[C@H](C)O1 | > 256 | > 256 | > 256 | > 256 | > 256 | > 256 | 32 (≈ 30.4 µM) | – | – | – | – | – | – | – | – | – | – | – | – | – | – |
| Cc1onc(-c2ccccc2)c1C(=O)N[C@@H]1C(=O)N2[C@@H]1SC(C)(C)[C@@H]2C(=O)O [OXACILLIN] | 256 (≈ 638 µM) | > 256 | > 256 | > 256 | > 256 | > 256 | > 256 | > 256 | > 256 | > 256 | 4 (≈ 9.96 µM) | > 256 | > 256 | > 256 | 0.5 (≈ 1.25 µM) | 0.5 (≈ 1.25 µM) | > 256 | – | – | > 256 | – |
| CC[C@H]1OC(=O)[C@H](C)[C@@H](O[C@H]2C[C@@](C)(OC)[C@@H](O)[C@H](C)O2)[C@H](C)[C@@H](O[C@@H]2O[C@H](C)C[C@H](N(C)C)[C@H]2O)[C@](C)(O)C[C@@H](C)CN(C)[C@H](C)[C@@H](O)[C@]1(C)O [AZITHROMYCIN] | 64 (≈ 85.4 µM) | 256 (≈ 342 µM) | 64 (≈ 85.4 µM) | 64 (≈ 85.4 µM) | > 256 | 64 (≈ 85.4 µM) | > 256 | > 256 | > 256 | > 256 | 8 (≈ 10.7 µM) | > 256 | > 256 | > 256 | 2 (≈ 2.67 µM) | 2 (≈ 2.67 µM) | > 256 | 2 (≈ 2.67 µM) | > 256 | > 256 | MIC (Enterococcus faecalis [17]): > 256 µg/mL; MIC (Staphylococcus aureus [19]): > 256 µg/mL |
